We go through 17 compounds from patent US12338296B2, “Peptides and compounds that bind to elongation initiation factor 4E” (AGENCY FOR SCIENCE, TECHNOLOGY AND RESEARCH, priority 2019, dated 2025).

pKd: −log10 of the molar value. Peptide text beside a SMILES is read from it.

The term pKd denotes the negative decadic logarithm of the Kd, by convention in mol/L.

T1 sequence (P06730 whole entry): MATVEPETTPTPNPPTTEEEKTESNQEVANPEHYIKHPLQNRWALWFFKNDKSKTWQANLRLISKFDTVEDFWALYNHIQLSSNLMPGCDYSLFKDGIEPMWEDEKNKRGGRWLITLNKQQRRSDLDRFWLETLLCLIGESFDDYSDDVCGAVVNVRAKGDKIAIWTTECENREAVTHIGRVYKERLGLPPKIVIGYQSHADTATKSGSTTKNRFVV

The first assay has as its target T1, eIF4E (Homo sapiens, UniProt P06730).
T1 construct: made in house; Plasmid and cells were provided by Cyclacel Ltd., Dundee
The experiment in a line: Surface plasmon resonance Kd determination on immobilized eIF4E (Biacore T100, CM5 chip). The assay is classed as binding. To be noted: KD relative to EE-2 (SPR). As to the method: Surface Plasmon Resonance (for Structural Activity Relationship (SAR) Tables)
For stock peptide solutions, the compounds were dissolved in 100% DMSO to a concentration of 10 mM; further dilutions of the peptide stock solutions into DMSO and/or running buffer were performed immediately prior to analysis. Running buffer consisted of 10 mM Hepes pH 7.6, 0.15 M NaCl, and 0.1% Tween20. Stock/DMSO diluted peptide solutions were diluted into 1.03× running buffer to make a peptide solution with 3% DMSO final concentration. […] Surface Plasmon resonance experiments were performed on a Biacore T100 machine.
Pure eIF4E was immnobilized on a CM5 sensor chip. The CM5 chip was conditioned with a 6 s injection of 100 mM HCL, followed by a 6 s injection of 0.1% SDS and completed with a 6 s injection of 50 mM NaOH at a flow rate of 100 μl/min. Activation of the sensor chip surface was performed with a mixture of NHS (115 mg ml^−1) and EDC (750 mg ml^−1) for 7 min at 10 μl min^−1. […] The amount of eIF4E immobilized on the activated surface was controlled by altering the contact time of the protein solution and was approximately 1000 RU. After the immobilization of the protein, a 7-min injection (at 10 μl min^−1) of 1 M ethanolamine (pH 8.5) was used to quench excess active succinimide ester groups.
Six buffer blanks were first injected to equilibrate the instrument fully and then a solvent correction curve was performed followed by a further two blank injections. The solvent correction curve was setup by adding varying amount of 100% DMSO to 1.03× running buffer to generate a range of DMSO solutions (3.8%, 3.6%, 3.4%, 3.2%, 3%, 2.85%, 2.7% and 2.5% respectively). Using a flow rate of 50 μl/min, compounds were injected for 60 s and dissociation was monitored for 180 s. The data collection rate was 10 Hz. Kds were determined using the BiaEvaluation software (Biacore) and calculated from both the response of the eIF4E coated CM5 chips at equilibrium and also kinetically from the dissociation and association phase data for each of the peptides. Both the equilibrium and kinetic data were fitted to 1:1 binding models. Each individual peptide Kd was determined from three separate titrations. Within each titration at least two concentration points were duplicated to ensure stability and robustness of the chip surface.
Kd were determined using surface plasmon resonance (SPR) as described in Methods.
For `CSCC[C@@H]1NC(=O)[C@H](CCC(=O)O)NC(=O)[C@@H](NC(=O)[C@H](C)N)CSSC[C@@H](C(=O)NCC(N)=O)NC(=O)[C@H](CC(=O)O)NC(=O)[C@H](CCCCN)NC(=O)[C@H](Cc2ccccc2)NC(=O)[C@H](Cc2ccccc2)NC(=O)CNC1=O` [EE-39] (HELM PEPTIDE1{A.C.E.M.G.F.F.K.D.C.G.[am]}$PEPTIDE1,PEPTIDE1,2:R3-10:R3$$$V2.0), the Fold change worked out at 0.5. With `CSCC[C@@H]1NC(=O)[C@H](CCC(=O)O)NC(=O)[C@@H](NC(=O)[C@H](C)NC(C)=O)CSSC[C@@H](C(=O)NCC(N)=O)NC(=O)[C@H](CC(=O)O)NC(=O)[C@H](CCC(N)=O)NC(=O)[C@H](Cc2ccccc2)NC(=O)[C@H](Cc2ccccc2)NC(=O)CNC1=O` [EE-11], the Fold change turned out to be 4.9. Compound `CSCC[C@@H]1NC(=O)[C@H](CCC(=O)O)NC(=O)[C@@H](N)CSSC[C@@H](C(N)=O)NC(=O)[C@H](CC(=O)O)NC(=O)[C@H](C)NC(=O)[C@H](Cc2ccccc2)NC(=O)[C@H](Cc2ccccc2)NC(=O)CNC1=O` [EE-44] (HELM PEPTIDE1{C.E.M.G.F.F.A.D.C.[am]}$PEPTIDE1,PEPTIDE1,1:R3-9:R3$$$V2.0) yielded a Fold change of 0.4. The same measure, in the same setting: next, `CSCC[C@@H]1NC(=O)[C@H](CCC(=O)O)NC(=O)[C@@H](NC(=O)[C@H](C)N)CSSC[C@@H](C(=O)NCC(N)=O)NC(=O)[C@H](CC(=O)O)NC(=O)[C@H](CC(C)C)NC(=O)[C@H](Cc2ccccc2)NC(=O)[C@H](Cc2ccccc2)NC(=O)CNC1=O` [EE-41] (HELM PEPTIDE1{A.C.E.M.G.F.F.L.D.C.G.[am]}$PEPTIDE1,PEPTIDE1,2:R3-10:R3$$$V2.0): 0.9; `CSCC[C@@H]1NC(=O)[C@H](CCC(=O)O)NC(=O)[C@@H](NC(=O)[C@H](C)N)CSSC[C@@H](C(=O)NCC(N)=O)NC(=O)[C@H](CC(=O)O)NC(=O)CNC(=O)[C@H](Cc2ccccc2)NC(=O)[C@H](Cc2ccccc2)NC(=O)CNC1=O` [EE-40] (HELM PEPTIDE1{A.C.E.M.G.F.F.G.D.C.G.[am]}$PEPTIDE1,PEPTIDE1,2:R3-10:R3$$$V2.0): 1.9.

Still in this assay, the particulars now being: SPR, eIF4E immobilized on CM5 chip, 1:1 binding model, three separate titrations.
Regarding `CSCC[C@@H]1NC(=O)[C@H](CCC(=O)O)NC(=O)[C@@H](NC(=O)[C@H](C)N)CSSC[C@@H](C(=O)NCC(N)=O)NC(=O)[C@H](CC(=O)O)NC(=O)[C@H](CCC(N)=O)NC(=O)[C@H](Cc2ccccc2)NC(=O)[C@H](Cc2ccccc2)NC(=O)CCNC1=O` [EE-27] (HELM PEPTIDE1{A.C.E.M.[bAla].F.F.Q.D.C.G.[am]}$PEPTIDE1,PEPTIDE1,2:R3-10:R3$$$V2.0), the pKd was less than 4.30. The same measure, in the same setting: to `CSCC[C@@H]1NC(=O)[C@H](CCC(=O)O)NC(=O)[C@@H](NC(=O)[C@H](C)N)CSSC[C@@H](C(=O)NCC(N)=O)NC(=O)[C@H](CC(=O)O)NC(=O)[C@H](CCC(N)=O)NC(=O)[C@H](Cc2ccccc2)NC(=O)[C@H](CC(C)C)NC(=O)CNC1=O` [EE-33] (HELM PEPTIDE1{A.C.E.M.G.L.F.Q.D.C.G.[am]}$PEPTIDE1,PEPTIDE1,2:R3-10:R3$$$V2.0) belongs less than 4.30.

For the compound `CSCC[C@@H]1NC(=O)[C@H](CCC(=O)O)NC(=O)[C@@H](NC(=O)[C@H](C)N)CSSC[C@@H](C(=O)NCC(N)=O)NC(=O)[C@H](CC(=O)O)NC(=O)[C@H](CCC(N)=O)NC(=O)[C@H](Cc2ccccc2)NC(=O)[C@H](Cc2ccccc2)NC(=O)[C@H](C)NC1=O` [EE-2C] (HELM PEPTIDE1{A.C.E.M.A.F.F.Q.D.C.G.[am]}$PEPTIDE1,PEPTIDE1,2:R3-10:R3$$$V2.0; bridges inferred), the pKd is 4.49. Regarding `CSCC[C@@H]1NC(=O)[C@H](CCC(=O)O)NC(=O)[C@@H](NC(=O)[C@H](C)NC(C)=O)CSSC[C@@H](C(=O)NCC(N)=O)NC(=O)[C@H](CC(=O)O)NC(=O)[C@H](CCC(N)=O)NC(=O)[C@H](Cc2ccccc2)NC(=O)[C@H](Cc2ccccc2)NC(=O)CNC1=O` [EE-11], the pKd was 6.00. As to `C[C@H](N)C(=O)N[C@H]1CSSC[C@@H](C(=O)NCC(N)=O)NC(=O)[C@H](CC(=O)O)NC(=O)[C@H](CCC(N)=O)NC(=O)[C@H](Cc2ccccc2)NC(=O)[C@H](Cc2ccccc2)NC(=O)CNC(=O)[C@H](C)NC(=O)[C@H](CCC(=O)O)NC1=O` [EE-2B] (HELM PEPTIDE1{A.C.E.A.G.F.F.Q.D.C.G.[am]}$PEPTIDE1,PEPTIDE1,2:R3-10:R3$$$V2.0), the pKd is less than 4.30.

In turn, `CSCC[C@@H]1NC(=O)[C@H](C)NC(=O)[C@@H](NC(=O)[C@H](C)N)CSSC[C@@H](C(=O)NCC(N)=O)NC(=O)[C@H](CC(=O)O)NC(=O)[C@H](CCC(N)=O)NC(=O)[C@H](Cc2ccccc2)NC(=O)[C@H](Cc2ccccc2)NC(=O)CNC1=O` [EE-2A] (HELM PEPTIDE1{A.C.A.M.G.F.F.Q.D.C.G.[am]}$PEPTIDE1,PEPTIDE1,2:R3-10:R3$$$V2.0; bridges inferred) had a pKd of 4.96. Regarding `CSCC[C@@H]1NC(=O)[C@H](CCC(=O)O)NC(=O)[C@@H](NC(=O)[C@H](C)N)CSSC[C@@H](C(=O)NCC(N)=O)NC(=O)[C@H](CC(=O)O)NC(=O)[C@H](CCC(N)=O)NC(=O)[C@H](CC(C)C)NC(=O)[C@H](CC(C)C)NC(=O)CNC1=O` [EE-38] (HELM PEPTIDE1{A.C.E.M.G.L.L.Q.D.C.G.[am]}$PEPTIDE1,PEPTIDE1,2:R3-10:R3$$$V2.0), the pKd was less than 4.30.

The compound `CSCC[C@@H]1NC(=O)[C@H](CCC(=O)O)NC(=O)[C@@H](NC(=O)[C@H](C)N)CSSC[C@@H](C(=O)NCC(N)=O)NC(=O)[C@H](CC(=O)O)NC(=O)CNC(=O)[C@H](Cc2ccccc2)NC(=O)[C@H](Cc2ccccc2)NC(=O)CNC1=O` [EE-40] (HELM PEPTIDE1{A.C.E.M.G.F.F.G.D.C.G.[am]}$PEPTIDE1,PEPTIDE1,2:R3-10:R3$$$V2.0) had a pKd of 6.40. The compound `CSCC[C@@H]1NC(=O)[C@H](CCC(=O)O)NC(=O)[C@@H](NC(=O)[C@H](C)N)CSSC[C@@H](C(=O)NCC(N)=O)NC(=O)[C@H](CC(=O)O)NC(=O)[C@H](CCC(N)=O)NC(=O)[C@H](CC(C)C)NC(=O)[C@H](Cc2ccccc2)NC(=O)CNC1=O` [EE-34] (HELM PEPTIDE1{A.C.E.M.G.F.L.Q.D.C.G.[am]}$PEPTIDE1,PEPTIDE1,2:R3-10:R3$$$V2.0) gave a pKd of less than 4.30.

`CSCC[C@@H]1NC(=O)[C@H](CCC(=O)O)NC(=O)[C@@H](NC(=O)[C@H](C)N)CSSC[C@@H](C(=O)NCC(N)=O)NC(=O)[C@H](CC(=O)O)NC(=O)[C@H](CCC(N)=O)NC(=O)[C@H](Cc2ccccc2)NC(=O)[C@H](Cc2ccccc2)NC(=O)[C@@H]2CCCN2C1=O` [EE-29] (HELM PEPTIDE1{A.C.E.M.P.F.F.Q.D.C.G.[am]}$PEPTIDE1,PEPTIDE1,2:R3-10:R3$$$V2.0): the pKd was less than 4.30.

Compound `CSCC[C@@H]1NC(=O)[C@H](CCC(=O)O)NC(=O)[C@@H](NC(=O)[C@H](C)N)CSSC[C@@H](C(=O)NCC(N)=O)NC(=O)[C@H](CC(=O)O)NC(=O)[C@H](CCC(N)=O)NC(=O)[C@H](C)NC(=O)[C@H](Cc2ccccc2)NC(=O)CNC1=O` [EE-2E] (HELM PEPTIDE1{A.C.E.M.G.F.A.Q.D.C.G.[am]}$PEPTIDE1,PEPTIDE1,2:R3-10:R3$$$V2.0) gave a pKd of less than 4.30.

The assay is the same for the next values; noted with them: SPR, in words.
`CSCC[C@@H]1NC(=O)[C@H](CCC(=O)O)NC(=O)[C@@H](NC(=O)[C@H](C)N)CSSC[C@@H](C(=O)NCC(N)=O)NC(=O)[C@H](CC(=O)O)NC(=O)[C@H](CCC(N)=O)NC(=O)[C@H](Cc2ccccc2)NC(=O)[C@H](Cc2ccc(O)cc2)NC(=O)CNC1=O` [EE-30] (HELM PEPTIDE1{A.C.E.M.G.Y.F.Q.D.C.G.[am]}$PEPTIDE1,PEPTIDE1,2:R3-10:R3$$$V2.0): the “binding to eIF4E compared with EE-02” value is “bound more tightly than EE-02”. Same read-out and setting: to `CSCC[C@@H]1NC(=O)[C@H](CCC(=O)O)NC(=O)[C@@H](NC(=O)[C@H](C)N)CSSC[C@@H](C(=O)NCC(N)=O)NC(=O)[C@H](CC(=O)O)NC(=O)[C@H](CCC(N)=O)NC(=O)[C@H](Cc2ccc(O)cc2)NC(=O)[C@H](Cc2ccccc2)NC(=O)CNC1=O` [EE-35] (HELM PEPTIDE1{A.C.E.M.G.F.Y.Q.D.C.G.[am]}$PEPTIDE1,PEPTIDE1,2:R3-10:R3$$$V2.0) belongs “bound more tightly than EE-02”.

In the next assay the target is T1, eIF4E. The experiment in a line: Tryptophan quenching experiments. As to conditions: 1 μM eIF4E, 0.01-20 μM titrant, excitation 290 nm, emission 355 nm; FIG. 2. The assay is classed as binding. The procedure: Tryptophan Quenching Experiments
Tryptophan quenching experiments were performed using an EnVision® multiplate reader with black matte 96-well plates. […] Concentrations tested ranged from 0.01-20 μM. Samples were excited with UV light at 290 nm to minimise contribution from tyrosine fluorescence. Tryptophan was measured at an emission wavelength of 355 nm.
With “KKRYSRDQLVAL (Synthetic peptide PHAGESOL) [reference compound]”, the “tryptophan quenching of eIF4E” value is “significantly lower amounts of tryptophan quenching”.
